≈ marks a conversion by molar mass, not a printed value. Like-named read-outs stand apart in the source and are kept apart here.
How the values were obtained:
M. tuberculosis CDC1551 [1] = assay: microbe, parasite or virus in culture; type: cell-based; settings: for MIC: Mycobacterium tuberculosis; for Aerobic MIC of CLOF: CLOF with 10 μM 6-azasteroid
M. tuberculosis = assay: Minimum Bactericidal Concentration (MBC); type: cell-based; settings: Mycobacterium tuberculosis
RIF-R2 (ATCC35838) = assay: microbe, parasite or virus in culture; type: cell-based; settings: Mycobacterium tuberculosis, single drug
[2] = both, human, microsomes, 2 μM, pH 7.4; for Remaining Percentage with NADPH, 0 min: 0 h; for Remaining Percentage with NADPH, 15 min: 0.25 h; for Remaining Percentage with NADPH, 30 min: 0.5 h; for Remaining Percentage with NADPH, 45 min: 0.75 h; for Remaining Percentage with NADPH, 60 min: 1 h
in vitro [3] = type: in vitro ADME; settings: human; for Papp A→B at 2 h, 5 μM: Caco-2, pH 7.4, Papp(A-B)
Experimental: (§1) Caco-2 cells were diluted to 6.86×10^6 cells/mL, dispensed into a 96-well HTS Transwell plate, and cultured for 14 to 18 days. 6-azasteroids at 5 μM was incubated at 37° C. for 2 hours with the Caco-2 cell monolayer in HBSS buffer (10 mM HEPES, pH 7.4) containing 5% BSA. Aliquots from donor sides (apical compartment for Ap→Bl flux, and basolateral compartment for Bl→Ap) and receiver sides (basolateral compartment for Ap→Bl flux, and apical compartment for Bl→Ap) were separated and extracted by acetonitrile or methanol containing appropriate internal standards (IS). The concentration of 6-azasteroid was determined by LC-MS/MS analysis.
(§2) Elution rate: 0.65 mL/min.
(§3) To predict absorption via oral administration, Caco-2 bidirectional permeability assay was performed (Table 8).

Caco-2 cell line = assay: in vitro; type: in vitro ADME; settings: for substrate for P-gp transporter: Caco-2; for intestinal absorption suggested by Papp(A-B): Caco-2, 5 μM
Experimental: as §1, §2, §3

in vitro [4] = settings: both, human, microsomes, pH 7.4
M. tuberculosis CDC1551 [5] = assay: In vitro kill kinetics / time-kill (FIG. 2, FIG. 3); type: cell-based; settings: for rapid killing with mono-treatment: mono-treatment at 10-20 μM, 15 days, FIG. 2
hERG = target: T1, hERG (Homo sapiens, UniProt Q12809); assay: hERG assay (hERG currents in HEK 293 cells); type: cell-based; settings: hERG stably expressed HEK 293 cells
T1 construct: expressed in transfected cells
T1 sequence (Q12809 whole entry): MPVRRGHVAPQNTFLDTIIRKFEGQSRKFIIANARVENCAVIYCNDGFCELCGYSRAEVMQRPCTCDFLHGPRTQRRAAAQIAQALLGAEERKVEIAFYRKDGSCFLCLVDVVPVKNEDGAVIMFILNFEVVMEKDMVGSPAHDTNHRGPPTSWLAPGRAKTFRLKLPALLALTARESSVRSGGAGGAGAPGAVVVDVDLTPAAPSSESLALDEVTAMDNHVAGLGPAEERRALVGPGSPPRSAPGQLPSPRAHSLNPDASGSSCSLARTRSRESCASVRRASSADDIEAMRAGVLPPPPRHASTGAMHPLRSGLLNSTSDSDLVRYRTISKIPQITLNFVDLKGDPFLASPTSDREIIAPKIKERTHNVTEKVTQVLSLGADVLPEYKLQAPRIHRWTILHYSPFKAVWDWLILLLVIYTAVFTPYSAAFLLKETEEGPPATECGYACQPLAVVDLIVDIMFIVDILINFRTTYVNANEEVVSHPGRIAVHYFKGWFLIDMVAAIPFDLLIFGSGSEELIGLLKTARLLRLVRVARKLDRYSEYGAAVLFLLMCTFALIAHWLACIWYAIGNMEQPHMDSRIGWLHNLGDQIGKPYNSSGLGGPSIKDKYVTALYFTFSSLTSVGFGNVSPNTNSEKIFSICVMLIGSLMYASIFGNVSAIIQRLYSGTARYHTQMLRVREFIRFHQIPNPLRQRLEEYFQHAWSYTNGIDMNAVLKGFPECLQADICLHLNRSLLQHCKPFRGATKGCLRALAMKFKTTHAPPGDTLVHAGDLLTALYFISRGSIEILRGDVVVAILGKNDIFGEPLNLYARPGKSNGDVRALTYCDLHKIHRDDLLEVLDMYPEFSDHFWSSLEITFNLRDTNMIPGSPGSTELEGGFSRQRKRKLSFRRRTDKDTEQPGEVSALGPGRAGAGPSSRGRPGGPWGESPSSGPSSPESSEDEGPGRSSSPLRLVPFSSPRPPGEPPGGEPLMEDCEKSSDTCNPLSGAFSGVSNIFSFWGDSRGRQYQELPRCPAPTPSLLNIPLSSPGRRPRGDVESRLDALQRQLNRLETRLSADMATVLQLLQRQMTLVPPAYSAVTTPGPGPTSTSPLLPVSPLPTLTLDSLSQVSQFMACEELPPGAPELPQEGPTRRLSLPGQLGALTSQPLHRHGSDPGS
Experimental: hERG stably expressed HEK 293 cells were seeded at 5×10^5 cells/per 6 cm cell culture dish and induced with doxycycline at 1 μg/mL for 48 hours. Compound at the final concentrations of 30, 10, 3.33, 1.11 and 0.37 μM was applied to the cells accumulatively, post-compound hERG currents were recorded, and IC50 was calculated. Dofetilide was used as a positive control.
To predict the potential cardiotoxic effects of 6-azastroids, human ether-a-go-go related gene (hERG) assay was applied to 100, 107 and 114 (Table 9). Cytotoxicity of 107 was also assessed (Table 10).

[6] = test system: M. tuberculosis constitutively expressing the luxABCDE operon; assay: microbe, parasite or virus in culture; type: cell-based; settings: for MIC: Mycobacterium tuberculosis, read-out: LORA MIC of INH; for activity under low oxygen conditions: in combination with isoniazid
Mtb = assay: Isoniazid MIC shift on Mtb MIC plates (broth microdilution MIC); type: cell-based, M. tuberculosis; settings: for MIC: Mycobacterium tuberculosis
[7] = Metabolic stability in human liver microsomes; settings: both, pH 7.4
[8] = human liver microsomes, value by Frye (Frye, S. V. 2006); cited from earlier work
[9] = test system: luminescent strain of H37Rv in infected J774A.1 cells; assay: microbe, parasite or virus in culture; type: cell-based, M. tuberculosis; settings: for IC50 / IC90: Mycobacterium tuberculosis, H37RV, J774.A1, single compound, 72 h treatment
[10] = 10 mg/kg IP injection once per day, seven days per week, for 40 days
[11] = test system: M. tuberculosis constitutively expressing the luxABCDE operon; settings: isoniazid alone (Cho, S. H. et al. 2007), cited from earlier work
[12] = CDC1551, TB drug alone, read-out: Aerobic MIC
[13] = 504 h, single compound, 2-log kill in 21 days, read-out: MBC
[14] = CDC1551, BDQ with 10 μM 6-azasteroid, read-out: Aerobic MIC of BDQ
[15] = CDC1551, Pa (pretomanid) with 10 μM 6-azasteroid, read-out: Aerobic MIC of Pa

O=[N+]([O-])c1cn2c(n1)OC[C@@H](OCc1ccc(OC(F)(F)F)cc1)C2 [Pa, pretomanid]
MIC (M. tuberculosis CDC1551 [1]; [12]): 0.00625 µM (≈ 0.00225 µg/mL)

COc1nc2ccc(Br)cc2cc1[C@@H](c1ccccc1)[C@@](O)(CCN(C)C)c1cccc2ccccc12 [BDQ, bedaquiline, reference compound]
MBC (M. tuberculosis; [13]): 0.5 µM (≈ 0.278 µg/mL) | MIC (M. tuberculosis CDC1551 [1]; [12]): 0.1 µM (≈ 0.0556 µg/mL)

CO[C@H]1/C=C/O[C@@]2(C)Oc3c(C)c(O)c4c(O)c(c(/C=N/N5CCN(C)CC5)c(O)c4c3C2=O)NC(=O)/C(C)=C\C=C\[C@H](C)[C@H](O)[C@@H](C)[C@@H](O)[C@@H](C)[C@H](OC(C)=O)[C@@H]1C [Rifampicin]
MIC (RIF-R2 (ATCC35838)): > 50 µM

CCCN1CC2C(CC[C@@]3(C)C2CC[C@@H]3C(=O)Nc2cc(C(C)(C)C)ccc2C(C)(C)C)[C@@]2(C)CCC(=O)C=C12 (some centres unmarked) [Compound 114]
Remaining Percentage with NADPH, 0 min [2]: 100.00% | Remaining Percentage with NADPH, 15 min [2]: 24.89% | Remaining Percentage with NADPH, 30 min [2]: 4.76% | Remaining Percentage with NADPH, 45 min [2]: 1.68% | Remaining Percentage with NADPH, 60 min [2]: 0.96% | efflux ratio at 2 h, 5 μM (in vitro [3]; Caco-2, pH 7.4, Efflux Ratio): 0.87 | Papp A→B at 2 h, 5 μM (in vitro [3]): 0.85 ×10⁻⁶ cm/s | efflux ratio at 2 h, 5 μM (in vitro [3]; Caco-2, pH 7.4, efflux ratio): ~0.5 | substrate for P-gp transporter (Caco-2 cell line): not a substrate for P-gp transporter | intestinal absorption suggested by Papp(A-B) (Caco-2 cell line; human, pH 7.4): over 50% | Efflux Ratio (Caco-2 cell line; human, Caco-2, 2 h, 5 μM, pH 7.4): 0.48 | microsomal CLint at 2 μM (in vitro [4]): 73.2 µL/min/mg | MBC (M. tuberculosis; [13]): > 40 µM | MBC (M. tuberculosis; BDQ with 10 μM 114, read-out: MBC of BDQ): 0.025 µM | MBC (M. tuberculosis; INH with 13 μM 114, read-out: MBC of INH): 0.7 µM | effect on bactericidal activity of bedaquiline (M. tuberculosis CDC1551 [5]): improves bactericidal activity of bedaquiline | rapid killing with mono-treatment (M. tuberculosis CDC1551 [5]): no rapid killing in 15 days | IC50 (hERG): 739 nM | Aerobic MIC of CLOF (M. tuberculosis CDC1551 [1]): NC^b | MIC (M. tuberculosis CDC1551 [1]; [14]): < 0.0015 µM | MIC ([6]; INH with 55 μM 6-azasteroid): 2.75 µM | activity under low oxygen conditions [6]: active | Isoniazid MIC shift (Mtb): +++ (>10-fold +++) | half-life at 2 μM [7]: 18.9 min

CC(C)/N=c1\cc2n(-c3ccc(Cl)cc3)c3ccccc3nc-2cc1Nc1ccc(Cl)cc1 [CLOF, clofazimine]
MIC (M. tuberculosis CDC1551 [1]; [12]): 2 µM (≈ 0.947 µg/mL)

CC(C)(C)c1cc(NC(=O)[C@H]2CCC3C4CNC5=CC(=O)CC[C@]5(C)C4CC[C@@]32C)cc(C(C)(C)C)c1 (some centres unmarked) [Compound 109]
Isoniazid MIC shift (Mtb): ++ (4-8-fold ++)

CC1C[C@@]2(C)C(=CC1=O)N(C)CC1C2CC[C@@]2(C)C1CC[C@@H]2C(=O)Nc1cc(C(C)(C)C)ccc1C(C)(C)C (some centres unmarked) [Compound 104]
Isoniazid MIC shift (Mtb): ++ (4-8-fold ++)

C[C@H]1COc2c(N3CCN(C)CC3)c(F)cc3c(=O)c(C(=O)O)cn1c23 [Levofloxacin]
MIC (RIF-R2 (ATCC35838)): 2.4 µM (≈ 0.867 µg/mL)

CC(C)(C)OC(=O)N1CC2C(CC[C@@]3(C)C2CC[C@@H]3C(=O)Nc2cc(C(F)(F)F)ccc2C(F)(F)F)[C@@]2(C)CCC(=O)C=C12 (some centres unmarked) [Compound 103]
Isoniazid MIC shift (Mtb): +++ (>10-fold +++)

CC(C)(C)c1ccc(C(C)(C)C)c(NC(=O)[C@H]2CCC3C4CNC5=CC(=O)CC[C@]5(C)C4CC[C@@]32C)c1 (some centres unmarked) [Compound 100]
T1/2 previously reported [8]: 164 min | Remaining Percentage with NADPH, 0 min [2]: 100.00% | Remaining Percentage with NADPH, 15 min [2]: 65.83% | Remaining Percentage with NADPH, 30 min [2]: 55.21% | Remaining Percentage with NADPH, 45 min [2]: 48.69% | Remaining Percentage with NADPH, 60 min [2]: 37.91% | Papp A→B at 2 h, 5 μM (in vitro [3]): 1.4 ×10⁻⁶ cm/s | efflux ratio at 2 h, 5 μM (in vitro [3]; Caco-2, pH 7.4, efflux ratio): ~0.5 | substrate for P-gp transporter (Caco-2 cell line): not a substrate for P-gp transporter | intestinal absorption suggested by Papp(A-B) (Caco-2 cell line; human, pH 7.4): over 50% | CLint scaled at 2 μM (in vitro [4]): 37.5 mL/min/kg | microsomal CLint at 2 μM (in vitro [4]): 29.9 µL/min/mg | MBC (M. tuberculosis; INH with 12 μM 100, read-out: MBC of INH): 0.6 µM | rapid killing with mono-treatment (M. tuberculosis CDC1551 [5]): no rapid killing in 15 days | IC50 (hERG): 953 nM | Aerobic MIC of CLOF (M. tuberculosis CDC1551 [1]): NC^b | MIC (M. tuberculosis CDC1551 [1]; [14]): 0.01 µM | MIC (M. tuberculosis CDC1551 [1]; [15]): 0.0002 µM | MIC ([6]; INH with 15 μM 6-azasteroid): 0.75 µM | activity under low oxygen conditions [6]: active | improvement of the potency of INH ([9]; 100 at 20 μM): 10 fold | IC50 [9]: 3000 nM | IC90 [9]: > 40000 nM | Isoniazid MIC shift (Mtb): +++ (>10-fold +++) | half-life at 2 μM [7]: 46.3 min | toxicity [10]: no toxicity was observed

NNC(=O)c1ccncc1 [INH, isoniazid]
LORA MIC [11]: >128 µM | LORA MIC ([11]; listed as isoniazid): > 128 µM | MIC (RIF-R2 (ATCC35838)): 0.6 µM (≈ 0.0823 µg/mL) | MBC (M. tuberculosis; [13]): > 230 µM | MIC (M. tuberculosis CDC1551 [1]; [12]): 0.2 to 0.4 µM (≈ 0.0274 to 0.0549 µg/mL) | IC50 [9]: ~1500 nM | IC90 [9]: > 6000 nM | MIC (Mtb; isoniazid without 6-azasteroid, read-out: MIC for isoniazid): 0.4 µM | MIC (Mtb; read-out: MIC for isoniazid alone): 0.2 to 0.4 µM

CC(=O)NC[C@H]1CN(c2ccc(N3CCOCC3)c(F)c2)C(=O)O1 [LIN, linezolid]
MIC (M. tuberculosis CDC1551 [1]; CDC1551, read-out: Aerobic MIC): 0.8 µM (≈ 0.27 µg/mL)

COc1c(N2C[C@@H]3CCCN[C@@H]3C2)c(F)cc2c(=O)c(C(=O)O)cn(C3CC3)c12 [MOXI, moxifloxacin]
MIC (M. tuberculosis CDC1551 [1]; [12]): 0.18 µM (≈ 0.0723 µg/mL)

CCc1cc(C(N)=S)ccn1 [ETH, ethionamide]
MIC (M. tuberculosis CDC1551 [1]; CDC1551, read-out: Aerobic MIC): 12.5 µM (≈ 2.08 µg/mL)

CN1CC2C(CC[C@@]3(C)C2CC[C@@H]3C(=O)Nc2cc(C(C)(C)C)ccc2C(C)(C)C)[C@@]2(C)CCC(=O)C=C12 (some centres unmarked) [Compound 113]
Isoniazid MIC shift (Mtb): +++ (>10-fold +++)

COc1nc(OC(F)(F)F)c(NC(=O)C2CCC3C4CNC5=CC(=O)CC[C@]5(C)C4CC[C@]23C)cc1Br (some centres unmarked) [Compound 105]
MIC (M. tuberculosis CDC1551 [1]; [15]): 0.0002 µM | Isoniazid MIC shift (Mtb): + (2-4-fold +)
